Experimental data published in US20080182872A1, “USE OF ER-BETA SELECTIVE LIGANDS FOR TREATING ACUTE LUNG INJURIES” (WYETH, priority 2007, published 2008).

Experiments:
S. pneumoniae = test: Murine pneumonia model (invasive pneumococcal pneumonia); format: in vivo; conditions: 3 mg/kg IV at 24 and 48 hours after S. pneumoniae LD90 inoculation; moxifloxacin at 6, 24, 48 hours; all vehicle animals succumbed by 80 hours
Method: The effects of Compound 1 and Compound 2[2-(3-fluoro-4-hydroxyphenyl)-7-vinyl-1,3-benzoxazol-5-ol, or ERB-041] initially dosed at 3 mg/kg IV were being assessed on 7-day survival, microbial clearance and attenuation the acute and chronic pro-inflammatory effects of invasive pneumococcal pneumonia in lung tissue and distant organs in the murine pneumonia model. [Mohler J et al. Intensive Care Med 2003; 29:808-816.] Compound 1 and Compound 2 were tested to determine their ability to modulate the pathophysiology of severe infection and mortality from local and systemic inflammation from severe bacterial pneumonia. The compounds were delivered IV at 24 and 48 hours after inoculation with S. pneumoniae at an LD90 dose. Moxifloxacin was given at 6, 24 and 48 hours. The animals became bacteremic and develop a lethal pulmonary and systemic infection between 48 and 72 hours after the primary inoculation. All of the vehicle treated animals succumbed by 80 hours (3 days and 8 hours), while at 7 days 20% of the Compound 1—treated animals were alive and 60% of the Compound 2—treated animals survived.

[1] = test system: CLP-induced polymicrobial sepsis; test: Murine cecal ligation and puncture (CLP) model of polymicrobial sepsis; format: in vivo, BALB/c mice; conditions: score 0 normal to 4 marked diffuse inflammation and damage; oral dosing from time of CLP; euthanized at 48 hours; 8 animals; p<0.001 vs vehicle 3.08±0.74
Method: Murine cecal ligation and puncture is an accepted model of sepsis and was performed according to a previously published protocol [Opal et al., “evaluation of the safety of recombinant P-selectin glycoprotein ligand-immunoglobulin G fusion protein in experimental models of localized and systemic infection,” Shock 2001;15:285-90]. […] Acute lung injury is a documented component of this peritonitis-induced sepsis, and the model has been used to study the effects of other pharmaceutical agents on acute lung injury in sepsis [Tsujimoto et al. Shock 2005;23:39-44; and Singleton et al. Am J Physiol Regul Integr Comp Physiol (Jan. 18, 2007)].
Mice were euthanized at 48 hours following CLP and treatment with vehicle or Compound 1, both treatments having begun at the time of CLP.
Compound 1 was given at a range of doses orally at time 0, 24 and 48 hours following CLP in male and female BALB/c mice Survival, inflammatory markers, lung histopathology, and microbiologic parameters were assessed.
Multiple lung specimens were taken at necropsy from 8 vehicle- and 8 Compound 1—treated animals and evaluated by an independent pathologist unaware of the treatment group assignments. Treatment with Compound 1 reduced lung lesions (such as lung edema and lung inflammation) comparing to that with vehicle (Compound 1: 1.0±0.76 vs. vehicle: 3.08±0.74, p<0.001). […]

E. coli = test: Intravenous E. coli challenge model of sepsis in baboons; format: in vivo; conditions: 10 mg/kg intravenously
Method: The intravenous E. coli infusion model of sepsis in baboons has been used for many years in sepsis research [Taylor F B Crit Care Med 2001 ;29:S78-89], and it has acute lung injury as one of its pathophysiological features [Sabharwal A K et al. Am J Resp Crit Care 1995; 151:758-67].
Compound 1 was given at a range of doses […] intravenously at a dose of 10 mg/kg in baboons 5 minutes before and then at 2, 24, 48, 72 and 96 hours following E. coli challenge. Survival, inflammatory markers, lung histopathology, and microbiologic parameters were assessed.
In the baboon study the lungs were examined at euthanasia of the animals when moribund or at the end of the 7 day experiment. Animals were assigned to vehicle and Compound 1 E. coli challenge. The lung specimens were evaluated by an independent pathologist unaware of treatment group assignments.

[2] = test system: peripheral blood mononuclear cells (PBMC) gene transcripts and plasma chemokines; test: Plasma proteome and PBMC gene transcription in the IV live E. coli challenge model in baboon; format: in vivo
Method: The plasma proteome and gene transcription of peripheral blood mononuclear cells (PBMC) were investigated using the baboon model of sepsis to evaluate the effect of Compound 1 on progression of the disease. The study comprised three treatment groups—sham-treated, vehicle, and Compound 1—of three baboons each. Blood samples were drawn at multiple time points (0, 0.5, 1, 2, 3, 4, 6, 24, 48, and 168 hours) from each baboon. NuGen amplified RNA was prepared from peripheral blood mononuclear cells (PBMC) isolated from the 0, 1, 6, and 24 hour blood samples. RNA levels were then measured using Affymetrix rhesus monkey Genechips, which interrogated 52,865 transcripts. Of interest was whether expression levels of one or more of these transcripts differed among the three treatment groups over the course of the study.
Genechip data were processed using Affymetrix MAS 5 software to calculate detection p-values and signal (expression) values. Detection p-values were used to generate Affymetrix Absent, Marginal, or Present calls (p-value≧0.065: Absent; 0.05≦p-value<0.065: Marginal; p-value<0.05: Present). Signal values were normalized by the standard MAS 5 procedure.
This filter reduced the number of transcripts for further analysis to 43,181.
To adjust for differences among animals in baseline expression values, change from baseline expression was analyzed. Change from baseline expression values were calculated using log2-transformed signal values. For each transcript, the log2 signal value for an animal at the 0 hour (baseline) sampling time was subtracted from the log2 signal value for the same animal for each later sampling time to yield change from baseline values for 1, 6, and 24 hours for that animal.
Repeated-measures analysis of variance (ANOVA) was used to compare (log2-transformed) change from baseline expression values in the treatment groups across the sampling time points. The ANOVA model included terms for treatment group and sampling time, and a term for the interaction between treatment group and time. The model also included a compound symmetry covariance parameter to account for any within-animal correlation between measurements at different sampling times from the same animal. Separate ANOVAs were run for each transcript. Pairwise comparisons between treatment groups were computed for mean concentrations across all times as well as for each time point separated. These pairwise comparisons were based on two-sided t-tests, with the error term for the t-tests based on the overall error term from the ANOVA.
Due to the substantial number of statistical tests performed, false discovery rates (FDRs) were used to adjust the raw p-values from F-tests and t-tests for multiple comparisons. The FDRs were computed to control the family-wise error level by calculating FDRs across transcripts separately for each set of comparisons (e.g., each pairwise comparison at a particular sampling time).

[3] = test system: lung tissue gene expression; test: Lung tissue gene expression in the mCLP model (Affymetrix array, Ingenuity Pathways Analysis); format: in vivo; conditions: mice subjected to CLP, intravenous treatment at CLP induction, lung tissue at 48 hours
Method: In order to further define the activity of Compound 1 in murine CLP, satellite groups of mice were treated intravenously at the time of CLP induction surgery with vehicle or Compound 1. An additional group of mice(surgical sham group) were subjected to the anesthesia and laparotomy, the cecum was manipulated but not ligated, and then the abdomen was closed. Because mCLP produces a progressive sepsis state, the animals become extremely ill and begin to succumb between 48-72 hours after mCLP. Thus, these animals were euthanized at 48 hours and lung tissue samples collected for gene expression analysis.
Messenger RNA was prepared by standard techniques, and the samples were processed on the Mouse430—2 Affymetrix commercial array, containing 45,037 non-control probe sets.
A heat map of differential gene expression was used to detect those gene transcripts with gene expression decreasing and those gene transcripts with gene expression increasing.
Using Ingenuity Pathways Analysis (IPA), 277 of the 522 probe sets were eligible for generating pathways. […] These pathways are identified in Table 4.

[4] = baboon plasma after E coli challenge
[5] = by 24 hours after E coli infusion, compared to vehicle treated animals

Row | Structure (SMILES) | animals alive (survival) at 7 days (S. pneumoniae) [%] | lung lesions (lung edema and lung inflammation) histopathology score [1] | clinical signs of pulmonary injury (percent change in respiratory rate from baseline) (E. coli) | hyaline membrane formation (histopathology) (E. coli; lungs at euthanasia or day 7) | intrapulmonary hemorrhage (histopathology) (E. coli; lungs at euthanasia or day 7) | plasma MCP-1 [2, 4] | plasma MIP-1 alpha [2, 4] | Hypoxia inducible factor-2 Alpha (HIF2-ALPHA) gene transcript in PBMC [2, 5] | Nuclear receptor subfamily 4, group A, member 3 (NR4A3) gene transcript in PBMC [2, 5] | early growth response 3 (EGR-3) gene transcript in PBMC [2, 5] | proinflammatory pathways (gene transcripts) in the lungs [3]
1 | N#Cc1cc(-c2ccc(O)c(F)c2)cc2ccc(O)cc12 [Compound 1, 3-(3-fluoro-4-hydroxy-phenyl)-7-hydroxy-naphthalene-1-carbonitrile] | 20 | 1.0±0.76 | attenuated | absence of hyaline membrane formation | decreased intrapulmonary hemorrhage | significantly reduced | significantly reduced | decreased | decreased | decreased | significantly decreased
2 | C=Cc1cc(O)cc2nc(-c3ccc(O)c(F)c3)oc12 [Compound 2, 2-(3-fluoro-4-hydroxyphenyl)-7-vinyl-1,3-benzoxazol-5-ol] | 60 | – | – | – | – | – | – | – | – | – | –
